Test results published in patent US20240376073A1 (Hoffmann-La Roche Inc., priority 2021, published 2024).
Counter-ions that a name gives are not always drawn.

The compounds below were run on Acinetobacter baumannii ATCC17961 (assay: Antimicrobial susceptibility testing: 90% growth inhibitory concentration (IC90) determination). Details: Acinetobacter baumannii ATCC17961; Iso-Sensitest broth; growth by OD 600 nm over 16 h; 35±2° C.; read-out: ATCC 17961 IC90.
Assay type: cell-based
In short: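 Twofold serial dilutions (e.g. 50 to 0.097 μM final) in Iso-Sensitest broth, inoculated at ~5×10^(5) CFU/ml, incubated at 35±2° C. OD600 read every 20 min over 16 h; IC90 derived from growth inhibition during logarithmic growth.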
With COc1ccc(-c2cnc(C(=O)Nc3ccc(C(=O)N4CCN(C(=O)CCC[N+](CCCN)(CCCN)CC(=O)O)CC4)c(Cl)c3)n2C)c(F)c1F [Example C34, bis(3-aminopropyl)-(carboxymethyl)-[4-[4-[2-chloro-4-[[5-(2,3-difluoro-4-methoxy-phenyl)-1-methyl-imidazole-2-carbonyl]amino]benzoyl]piperazin-1-yl]-4-oxo-butyl]ammonium; formate] the IC90 was 570 nM. Cn1c(-c2ccc(OC(F)F)c(F)c2F)cnc1C(=O)Nc1ccc(C(=O)N2CCN(C(=O)C3CC[N+](C)(CC4CNC4)CC3)CC2)c(F)c1 (stereo not drawn) [Example C42, N-[4-[4-[1-(azet-idin-3-ylmethyl)-1-methyl-piper-idin-1-ium-4-carbonyl]piper-azine-1-carbon-yl]-3-fluoro-phenyl]-5-[4-(difluorometh-oxy)-2,3-difluoro-phenyl]-1-methyl-imidazole-2-car-boxamide; 2,2,2-trifluoroacetate; 2,2,2-trifluoro-acetic acid] was tested, and the IC90 was 100 nM. With COc1ccc(-c2cnc(C(=O)Nc3ccc(C(=O)N4CCC(NC(=O)[C@@H]5C[C@@H](O)C[N+]5(C)C)CC4)c(Cl)c3)n2C)c(F)c1F [Example C43, N-[3-chloro-4-[4-[[(2S,4R)-4-hydroxy-1,1-dimethyl-pyrrolidin-1-ium-2-carbonyl]amino]piperidine-1-carbonyl]phenyl]-5-(2,3-difluoro-4-methoxy-phenyl)-1-methyl-imidazole-2-carboxamide;formate] the IC90 was 290 nM.

Same assay, conditions: Acinetobacter baumannii, ATCC17961, 16 h, read-out: ATCC 17961 IC90, Acinetobacter baumannii ATCC17961; Iso-Sensitest broth; growth by OD 600 nm over 16 h; 35±2° C.
With COc1ccc(-c2cnc(C(=O)Nc3ccc(C(=O)N4CCN(C(=O)CCC[N+](C)(CCCN)CC(=O)O)CC4)c(Cl)c3)n2C)c(F)c1F (stereo not drawn) [Example C35, 3-aminopropyl-(carboxymethyl)-[4-[4-[2-chloro-4-[[5-(2,3-difluoro-4-methoxy-phenyl)-1-methyl-imidazole-2-carbonyl]amino]beuzoyl]piperazin-1-yl]-4-oxo-butyl]-methyl-ammonium formate] the IC90 was 510 nM. Work on COc1ccc(-c2cnc(C(=O)Nc3ccc(C(=O)N4CCN(C(=O)N5CC[N+](C)(CC(=O)O)CC5)CC4)c(Cl)c3)n2C)c(F)c1F [Example C36, 2-[4-[4-[2-chloro-4-[[5-(2,3-difluoro-4-methoxy-phenyl)-1-methyl-imidazole-2-carbonyl]amino]benzoyl]piperazine-1-carbonyl]-1-methyl-piperazin-1-ium-1-yl]acetic acid formate] yielded an IC90 of 1100 nM. COc1ccc(-c2cnc(C(=O)Nc3ccc(C(=O)N4CCN(C(=O)N5C[C@@H]6C[N+](CCCN)(CC(=O)O)C[C@@H]6C5)CC4)c(Cl)c3)n2C)c(F)c1F (stereo partly drawn) [Example C37, hydrochloride] gave an IC90 of 340 nM. COc1ccc(-c2cnc(C(=O)Nc3ccc(C(=O)N4CCN(C(=O)N5CC[N+](CCCN)(CC(=O)O)CC5)CC4)c(Cl)c3)n2C)c(F)c1F [Example C38, 2-[1-(3-aminopropyl)-4-[4-[2-chloro-4-[[5-(2,3-difluoro-4-methoxy-phenyl)-1-methyl-imidazole-2-carbonyl]amino]benzoyl]piperazine-1-carbonyl]piperazin-1-ium-1-yl]acetic acid formate] showed an IC90 of 730 nM. In the case of COc1ccc(-c2cnc(C(=O)Nc3ccc(C(=O)N4CCN(C(=O)C5CC[N+](CC(=O)O)(CC6CNC6)CC5)CC4)c(Cl)c3)n2C)c(Cl)c1F (stereo not drawn) [Example C40, 2-[1-(azetidin-3-ylmethyl)-4-[4-[2-chloro-4-[[5-(2-chloro-3-fluoro-4-methoxy-phenyl)-1-methyl-imidazole-2-carbonyl]amino]benzoyl]piperazine-1-carbonyl]piperidin-1-ium-1-yl]acetic acid; formate], the IC90 is reported as 540 nM. In the case of Cn1c(-c2ccc(OCF)c(F)c2Cl)cnc1C(=O)Nc1ccc(C(=O)N2CCN(C(=O)C3CC[N+](CC(=O)O)(CC4CNC4)CC3)CC2)c(Cl)c1 (stereo not drawn) [Example C41, 2-[1-(azetidin-3-ylmethyl)-4-[4-[2-chloro-4-[[5-[2-chloro-3-fluoro-4-(fluoromethoxy)phenyl]-1-methyl-imidazole-2-carbonyl]amino]benzoyl]piperazine-1-carbonyl]piperidin-1-ium-1-yl]acetic acid formate], the IC90 is reported as 480 nM.
